Values of other authors, collected in patent US20240197636A1, “TISSUE-SPECIFIC NUCLEIC ACID DELIVERY BY MIXED CATIONIC LIPID PARTICLES” (OMEGA THERAPEUTICS, INC., priority 2021, published 2024).

Q: With `CCCCC/C=C\C/C=C\CCCCCCCCC(CCCCCCCC/C=C\C/C=C\CCCCC)OC(=O)CCCN(C)C` [MC3, (6Z,9Z,28Z,31Z)-heptatriaconta-6,9,28,31-tetraen-19-yl 4-(dimethylamino) butanoate] as the molecule, how does the pKa read?
A: 6.4
